One assay has as its target Erk1 (Homo sapiens (Human), UniProt P27361). Put plainly: Protein Mass Modification Assay (intact protein MALDI). It counts as binding. Summed up:
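Percent covalent modification comes from the intact-protein MALDI centroid mass shift, treated versus control, divided by compound MW. Before analysis, human Erk1 was exposed to compound at 10-fold excess over protein for 60 min at room temperature.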

The target of another assay is MEK1 activated ERK1 (Homo sapiens (Human), UniProt P27361). Put plainly: Omnia continuous-read kinase assay for potency against MEK1 activated ERK1. Particulars: MEK1 activated ERK1, WT, ATP at KM. Type of assay: biochemical. The source says:
Omnia Assay Protocol for Potency Assessment Against MEK1 Activated ERK1:
The protocol below describes continuous-read kinase assays to measure potency of compounds against activated ERK1 enzyme. The mechanics of the assay platform are best described by the vendor (Invitrogen, Carlsbad, Calif.) on their website at the following URL: invitrogen.com/site/us/en/home.html.
Briefly, a 1.25× stock of ERK1 enzyme (14-439-K) from Millipore (Billerica, Mass.), 5×ATP (AS001A) and ST17-Sox conjugated peptide substrate (KNZ1171C) were prepared in 1× kinase reaction buffer consisting of 20 mM Tris, pH 7.5, 5 mM MgCl2, 1 mM EGTA, 5 mM β-glycerophosphate, 5% glycerol (10× stock, KB002A) and 0.2 mM DTT. 10 μL of ATP/ST17-sox peptide substrate mix was combined with 0.5 μL volume of 100% DMSO and serially diluted compounds were prepared in 100% DMSO in a Corning (#3574) 384-well, white, non-binding surface microtiter plate (Corning, N.Y.). Kinase reactions were started with the addition of 40 μL of ERK1 solution and monitored every 71 seconds for 30-240 minutes at λex360/λem485 in a Synergy plate reader from BioTek (Winooski, Vt.). At the conclusion of each assay, progress curves from each well were examined for linear reaction kinetics and fit statistics (R^2, 95% confidence interval, absolute sum of squares). Initial velocity (0 minutes to ˜30+ minutes) from each reaction was determined from the slope of a plot of relative fluorescence units vs time (minutes or seconds) and then plotted against inhibitor concentration to estimate ^AppIC50 from log [Inhibitor] vs Response, Variable Slope model in GraphPad Prism from GraphPad Software (San Diego, Calif.).
[Reagent] used in optimized protocol:
[ERK1]=4 nM, [ATP]=50 μM, [ST17-Sox]=10 μM (ATP ^appKM 48 μM)
The results of this assay show the degree of inhibition of ERK activity, which is a direct measurement of inhibition of ERK activity. Results from this assay are reported in Table A under the column “ERK1 Omnia WT ATP KM IC50 (nM).”

Here are results for 21 molecules from patent US9796700B2 (Celgene CAR LLC, priority 2013, dated 2017).

Sequence of Erk1 (P27361 whole entry, looked up): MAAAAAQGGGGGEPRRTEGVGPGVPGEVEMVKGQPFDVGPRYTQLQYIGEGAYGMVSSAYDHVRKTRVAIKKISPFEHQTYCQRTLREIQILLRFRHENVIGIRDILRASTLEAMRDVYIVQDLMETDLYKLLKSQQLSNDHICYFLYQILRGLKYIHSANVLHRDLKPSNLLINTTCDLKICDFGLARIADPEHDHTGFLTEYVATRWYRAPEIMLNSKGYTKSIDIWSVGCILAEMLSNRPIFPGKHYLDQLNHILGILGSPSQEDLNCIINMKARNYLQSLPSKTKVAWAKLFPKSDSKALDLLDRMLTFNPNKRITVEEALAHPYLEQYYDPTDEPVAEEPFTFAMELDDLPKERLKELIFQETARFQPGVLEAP
Sequence of MEK1 activated ERK1 (P27361 whole entry): as the sequence (P27361 whole entry, looked up) above

`C=CC(=O)Nc1ccccc1Nc1nc(Nc2ccc(OCCOC)cc2OC)ncc1Cl` [Compound I-182, N-(2-((5-chloro-2-((2-methoxy-4-(2-methoxyethoxy)phenyl)amino)pyrimidin-4-yl)amino)phenyl)acrylamide]: the “ERK1 Mass Mod (%)” value at Erk1 is recorded as “E (provided a mass modification of ≧70%)”. The IC50 at MEK1 activated ERK1 is greater than 1000 nM.
As to `CC(C)S(=O)(=O)c1ccccc1Nc1nc(N[C@H]2CCCN(C(=O)CO)C2)ncc1C(F)(F)F` [Compound I-310, (S)-2-hydroxy-1-(3-((4-((2-(isopropylsulfonyl)phenyl)amino)-5-(trifluoromethyl)pyrimidin-2-yl)amino)piperidin-1-yl)ethanone], the “ERK1 Mass Mod (%)” value on Erk1 is given as “G (proived a mass modification ≦30%)”. At MEK1 activated ERK1, the IC50 is less than 100 nM.
Regarding `C=CC(=O)Nc1ccccc1Nc1nc(N[C@@H]2CCC[C@H](C(N)=O)C2)ncc1C(F)(F)F` [Compound I-7, (1S,3R)-3-((4-((2-acrylamidophenyl)amino)-5-(trifluoromethyl)pyrimidin-2-yl)amino)cyclohexanecarboxamide], on Erk1, the “ERK1 Mass Mod (%)” value was “E (provided a mass modification of ≧70%)”. Also, on MEK1 activated ERK1, the IC50 was less than 100 nM.
For `C#CCOc1cc(C)c(Nc2ncc(Cl)c(Nc3ccccc3NC(=O)C=C)n2)cc1C(N)=O` [Compound I-228, 5-((4-((2-acrylamidophenyl)amino)-5-chloropyrimidin-2-yl)amino)-4-methyl-2-(prop-2-yn-1-yloxy)benzamide], the “ERK1 Mass Mod (%)” value at Erk1 is recorded as “G (proived a mass modification ≦30%)”. Further, the IC50 on MEK1 activated ERK1 was less than 100 nM.
As to `C=CC(=O)Nc1cc(C)ccc1Nc1nc(N[C@H]2CCCN(C(=O)c3ccccc3)C2)ncc1C(F)(F)F` [Compound I-44, (S)—N-(2-((2-((1-Benzoylpiperidin-3-yl)amino)-5-(trifluoromethyl)pyrimidin-4-yl)amino)-5-methylphenyl)acrylamide], the “ERK1 Mass Mod (%)” value at Erk1 is “E (provided a mass modification of ≧70%)”. Besides, on MEK1 activated ERK1, the 50% inhibitory concentration (IC50) is greater than 1000 nM.
For `C=CC(=O)Nc1ccccc1Nc1nc(N[C@H]2CCC[C@@H](C(N)=O)C2)ncc1Cl` [Compound I-120, (1R,3S)-3-((4-((2-acrylamidophenyl)amino)-5-chloropyrimidin-2-yl)amino)cyclohexanecarboxamide], on Erk1, the “ERK1 Mass Mod (%)” value is “E (provided a mass modification of ≧70%)”. For the same molecule, the IC50 on MEK1 activated ERK1 is less than 100 nM.
Taken in the same sequence, the figures for `C=CC(=O)Nc1ccccc1Nc1nc(N[C@H]2CCCN(C(=O)[C@@H](C)O)C2)ncc1Cl` [Compound I-134, N-(2-((5-chloro-2-(((S)-1-((R)-2-hydroxypropanoyl)piperidin-3-yl)amino)pyrimidin-4-yl)amino)phenyl)acrylamide] were “E (provided a mass modification of ≧70%)” and less than 100 nM.
For `C=CC(=O)Nc1cc(C)ccc1Nc1nc(N[C@@H]2CCCN(S(=O)(=O)C=C)C2)ncc1C(F)(F)F` [Compound I-278, (R)—N-(5-Methyl-2-((5-(trifluoromethyl)-2-((1-(vinylsulfonyl)piperidin-3-yl)amino)pyrimidin-4-yl)amino)phenyl)acrylamide], the “ERK1 Mass Mod (%)” value on Erk1 is listed as “F (provided a mass modification of 31-69%)”. The IC50 on MEK1 activated ERK1 is greater than 1000 nM.
With `C=C(C)S(=O)(=O)Nc1ccccc1Nc1nc(N[C@H]2CCCN(C(=O)CO)C2)ncc1C(F)(F)F` [Compound I-46, (S)—N-(2-((2-((1-(2-Hydroxyacetyl)piperidin-3-yl)amino)-5-(trifluoromethyl)pyrimidin-4-yl)amino)phenyl)prop-1-ene-2-sulfonamide], the “ERK1 Mass Mod (%)” value at Erk1 is listed as “G (proived a mass modification ≦30%)”. Moreover, the IC50 at MEK1 activated ERK1 was less than 100 nM.
`C=CC(=O)Nc1cc(OC)ccc1Nc1nc(Nc2ccc(-n3ccnc3)cc2C#N)ncc1Cl` [Compound I-157, N-(2-((5-chloro-2-((2-cyano-4-(1H-imidazol-1-yl)phenyl)amino)pyrimidin-4-yl)amino)-5-methoxyphenyl)acrylamide]: the “ERK1 Mass Mod (%)” value at Erk1 is “F (provided a mass modification of 31-69%)”. Further, the IC50 at MEK1 activated ERK1 is greater than 1000 nM.
As for `CC#CC(=O)Nc1ccccc1Nc1nc(N[C@H]2CCCN(C(=O)CO)C2)ncc1C(F)(F)F` [Compound I-29, (S)—N-(2-((2-((1-(2-Hydroxyacetyl)piperidin-3-yl)amino)-5-(trifluoromethyl)pyrimidin-4-yl)amino)phenyl)but-2-ynamide], the “ERK1 Mass Mod (%)” value on Erk1 is “G (proived a mass modification ≦30%)”. The IC50 on MEK1 activated ERK1 is greater than 1000 nM.
For the molecule `C=CC(=O)Nc1cc(C)ccc1Nc1nc(N[C@H]2CCCN(C(C)=O)C2)ncc1C(F)(F)F` [Compound I-19, (S)—N-(2-((2-((1-Acetylpiperidin-3-yl)amino)-5-(trifluoromethyl)pyrimidin-4-yl)amino)-5-methylphenyl)acrylamide], at Erk1, the “ERK1 Mass Mod (%)” value was “E (provided a mass modification of ≧70%)”. The IC50 on MEK1 activated ERK1 is less than 100 nM.
`C=CC(=O)Nc1cc(C)ccc1Nc1nc(Nc2nc(OC)ccc2Cl)ncc1C(F)(F)F` [Compound I-360, N-(2-((2-((3-chloro-6-methoxypyridin-2-yl)amino)-5-(trifluoromethyl)pyrimidin-4-yl)amino)-5-methylphenyl)acrylamide]: the “ERK1 Mass Mod (%)” value on Erk1 is reported as “E (provided a mass modification of ≧70%)”. Further, the IC50 on MEK1 activated ERK1 was greater than 1000 nM.
Consider `C=CC(=O)Nc1ccccc1Nc1nc(Nc2cc(C(=O)NOC)ccc2C)ncc1C(F)(F)F` [Compound I-69, 3-((4-((2-Acrylamidophenyl)amino)-5-(trifluoromethyl)pyrimidin-2-yl)amino)-N-methoxy-4-methylbenzamide], for which, at Erk1, the “ERK1 Mass Mod (%)” value is given as “E (provided a mass modification of ≧70%)”. Moreover, the IC50 on MEK1 activated ERK1 was less than 100 nM.
`C=CC(=O)Nc1cc(C)ccc1Nc1nc(N[C@H]2CCCN(C(=O)CN)C2)ncc1C(F)(F)F` [Compound I-42, (S)—N-(2-((2-((1-(2-Aminoacetyl)piperidin-3-yl)amino)-5-(trifluoromethyl)pyrimidin-4-yl)amino)-5-methylphenyl)acrylamide]: the “ERK1 Mass Mod (%)” value on Erk1 is recorded as “E (provided a mass modification of ≧70%)”. Moreover, on MEK1 activated ERK1, the IC50 was less than 100 nM.
The matching figures for `C=CC(=O)Nc1ccccc1Nc1nc(Nc2cc(C(=O)NOC)ccc2C)ncc1Cl` [Compound I-191, 3-((4-((2-acrylamidophenyl)amino)-5-chloropyrimidin-2-yl)amino)-N-methoxy-4-methylbenzamide]: “E (provided a mass modification of ≧70%)” and less than 100 nM.
As for `C=CC(=O)NCc1ccccc1Nc1nc(Nc2cc(C(N)=O)ccc2C)ncc1Cl` [Compound I-189, 3-((4-((2-(acrylamidomethyl)phenyl)amino)-5-chloropyrimidin-2-yl)amino)-4-methylbenzamide], the “ERK1 Mass Mod (%)” value on Erk1 is listed as “G (proived a mass modification ≦30%)”. In addition, the IC50 at MEK1 activated ERK1 is greater than 1000 nM.
Taken in the same sequence, the figures for `C=C(C)S(=O)(=O)Nc1cc(C)ccc1Nc1nc(N[C@H]2CCCN(C(=O)CO)C2)ncc1C(F)(F)F` [Compound I-47, (S)—N-(2-((2-((1-(2-Hydroxyacetyl)piperidin-3-yl)amino)-5-(trifluoromethyl)pyrimidin-4-yl)amino)-5-methylphenyl)prop-1-ene-2-sulfonamide] were “G (proived a mass modification ≦30%)” and less than 100 nM.
Taken in the same sequence, the figures for `C=CC(=O)Nc1ccccc1Nc1nc(Nc2cc(C(N)=O)ccc2C#N)ncc1C(F)(F)F` [Compound I-71, 3-((4-((2-Acrylamidophenyl)amino)-5-(trifluoromethyl)pyrimidin-2-yl)amino)-4-cyanobenzamide] were “E (provided a mass modification of ≧70%)” and less than 100 nM.
With `C=CC(=O)Nc1ccccc1Nc1nc(N[C@@H]2CCC[C@H](C(N)=O)C2)ncc1Cl` [Compound I-119, (1S,3R)-3-((4-((2-acrylamidophenyl)amino)-5-chloropyrimidin-2-yl)amino)cyclohexanecarboxamide], on Erk1, the “ERK1 Mass Mod (%)” value is “E (provided a mass modification of ≧70%)”. In addition, on MEK1 activated ERK1, the IC50 was less than 100 nM.
The matching figures for `C=CC(=O)Nc1cc(Cl)ccc1Nc1nc(Nc2cc(Cl)nc(OC)c2)ncc1Cl` [Compound I-247, N-(5-chloro-2-((5-chloro-2-((2-chloro-6-methoxypyridin-4-yl)amino)pyrimidin-4-yl)amino)phenyl)acrylamide]: “F (provided a mass modification of 31-69%)” and greater than 1000 nM.
